Measured values from ChEMBL document CHEMBL5120876, “Design, synthesis and biological evaluation of novel indole derivatives as gut-selective NaPi2b inhibitors” (Bioorg Med Chem, 2022).
≈ marks a conversion by molar mass, not a printed value. Calls of active or inactive are those of the source. The rule behind the calls is not given here.

Tests used:
[1] = target: T1, Sodium-dependent phosphate transport protein 2B (Homo sapiens, UniProt O95436); test: Inhibition of human NaPi2b expressed in CHO-K1 cells assessed as reduction in [33P] uptake preincubated with compound for 30 mins followed by [33P]O4 addition and measured after 30 mins by TopCount liquid scintillation counting method; format: cell-based
T1 sequence (O95436 whole entry): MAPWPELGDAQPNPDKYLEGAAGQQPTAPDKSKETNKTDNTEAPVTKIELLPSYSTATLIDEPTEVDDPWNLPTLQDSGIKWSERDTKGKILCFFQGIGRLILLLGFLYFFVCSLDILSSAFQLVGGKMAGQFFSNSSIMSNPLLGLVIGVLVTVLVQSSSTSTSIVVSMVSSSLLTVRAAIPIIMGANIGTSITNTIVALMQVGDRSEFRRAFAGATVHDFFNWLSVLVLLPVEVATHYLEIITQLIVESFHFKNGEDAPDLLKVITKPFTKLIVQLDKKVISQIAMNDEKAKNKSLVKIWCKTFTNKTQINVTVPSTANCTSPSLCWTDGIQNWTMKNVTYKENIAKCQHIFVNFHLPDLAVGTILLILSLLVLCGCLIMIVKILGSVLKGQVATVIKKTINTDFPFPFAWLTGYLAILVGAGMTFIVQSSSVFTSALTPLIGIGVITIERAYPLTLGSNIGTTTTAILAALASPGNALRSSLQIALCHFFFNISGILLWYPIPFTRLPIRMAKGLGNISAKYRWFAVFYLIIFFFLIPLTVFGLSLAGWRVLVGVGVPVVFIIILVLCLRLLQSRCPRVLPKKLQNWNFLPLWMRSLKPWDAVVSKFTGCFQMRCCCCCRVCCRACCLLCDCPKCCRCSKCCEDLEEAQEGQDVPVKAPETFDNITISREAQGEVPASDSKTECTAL

[2] = target: T2, Sodium-dependent phosphate transport protein 2B (Homo sapiens) (UniProt O95436); test: Inhibition of human NaPi2b at 1 uM relative to control
T2 sequence (whole entry): T1 sequence (O95436 whole entry)

[3] = target: T1, Sodium-dependent phosphate transport protein 2B; test: Inhibition of NaPi2b (unknown origin)
[4] = AUC (0 to t) in Sprague-Dawley rat at 10 mg/kg, po administered as single dose by LC-MS analysis; format: ADME, organism-based; design: dose 10 mg/kg, route po; settings: in vivo
[5] = Solubility of the compound in fasted state simulated intestinal fluid at pH 6.5 incubated for 24 hrs by HPLC analysis; format: physicochemical
[6] = target: T3, Sodium-dependent phosphate transport protein 2B (Rattus norvegicus, UniProt Q9JJ09); test: Inhibition of rat NaPi2b expressed in CHO-K1 cells assessed as reduction in [33P] uptake preincubated with compound for 30 mins followed by [33P]O4 addition and measured after 10 mins by TopCount liquid scintillation counting method; format: cell-based
T3 sequence (Q9JJ09 whole entry): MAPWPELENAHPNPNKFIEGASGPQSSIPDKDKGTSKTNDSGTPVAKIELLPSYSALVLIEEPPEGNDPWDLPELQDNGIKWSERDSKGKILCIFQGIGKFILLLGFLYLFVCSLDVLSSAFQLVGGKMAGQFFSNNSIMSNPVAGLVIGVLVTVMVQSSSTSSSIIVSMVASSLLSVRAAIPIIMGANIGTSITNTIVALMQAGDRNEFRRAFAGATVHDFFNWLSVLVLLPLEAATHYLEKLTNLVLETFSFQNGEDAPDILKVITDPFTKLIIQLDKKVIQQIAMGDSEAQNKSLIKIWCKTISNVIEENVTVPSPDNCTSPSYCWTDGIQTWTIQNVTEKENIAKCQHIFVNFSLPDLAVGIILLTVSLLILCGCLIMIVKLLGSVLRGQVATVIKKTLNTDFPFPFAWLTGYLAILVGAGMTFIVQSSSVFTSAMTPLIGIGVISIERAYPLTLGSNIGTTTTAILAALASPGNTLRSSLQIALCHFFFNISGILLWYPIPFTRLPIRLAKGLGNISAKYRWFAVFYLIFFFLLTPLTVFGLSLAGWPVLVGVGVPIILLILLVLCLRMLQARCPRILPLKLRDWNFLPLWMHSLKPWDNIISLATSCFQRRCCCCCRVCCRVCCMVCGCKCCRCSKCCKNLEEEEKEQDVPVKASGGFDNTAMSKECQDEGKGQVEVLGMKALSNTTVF

[7] = Solubility of the compound in fed state simulated intestinal fluid at pH 5.0 incubated for 24 hrs by HPLC analysis; format: physicochemical
[8] = Cmax in Sprague-Dawley rat at 10 mg/kg, po administered as single dose by LC-MS analysis; format: ADME, organism-based; design: dose 10 mg/kg, route po; settings: in vivo
[9] = AUC (0 to t) in Sprague-Dawley rat at 1 mg/kg, iv administered as single dose by LC-MS analysis; format: ADME, organism-based; design: dose 1 mg/kg, route iv; settings: in vivo
[10] = Drug concentration in Sprague-Dawley rat intestine at 10 mg/kg, po administered as single dose; format: ADME, organism-based; settings: in vivo
[11] = Drug excretion in Sprague-Dawley rat feces assessed as cumulative amount of unchanged drug excreted at 10 mg/kg, po administered as single dose and measured within 24 hrs by LC-MS analysis; format: ADME, organism-based; settings: faeces, read-out: Ae
[12] = Oral bioavailability in Sprague-Dawley rat at 10 mg/kg administered as single dose by LC-MS analysis; format: ADME, organism-based; settings: in vivo
[13] = AUC (0 to t) in Sprague-Dawley rat at 1.17 mg/kg, iv administered as single dose by LC-MS analysis; format: ADME, organism-based; design: dose 1.17 mg/kg, route iv; settings: in vivo
Rattus norvegicus = test: In vivo inhibition of NaPi2b in Sprague-Dawley rat assessed as reduction in phosphate absorption at 10 mg/kg, po preincubated for 5 mins followed by addition of NaH2PO4 containing 32P-phosphate solution and measured after 15 to 30 mins by liquid scintillation counting method; format: functional, organism-based; settings: time 20.0 min

Work on `CCC(CC)N(CCN(C)C(=O)CCC(=O)O)Cc1cccc(C(=O)Nc2[nH]c3ccccc3c2C(=O)Nc2ccccc2)c1` yielded an IC50 [1] of 538 nM.
Work on `CCCC(CCC)N(CCN(C)C(=O)CCC(=O)O)Cc1cccc(C(=O)Nc2[nH]c3ccccc3c2C(=O)Nc2ccc(CCCc3ccc(C(=O)O)cc3)cc2)c1` yielded an IC50 [1] of 78 nM.
Molecule `CCC(CC)N(CCN(C)C(=O)CCC(=O)O)Cc1cccc(C(=O)Nc2sc3c(c2C(=O)Nc2ccc(CCc4ccc(C(=O)O)cc4)cc2)CCCC3)c1` has an inhibition [2] of 87%.
For `CN(Cc1cccc(C(=O)Nc2[nH]c3ccccc3c2C(=O)Nc2ccc(CCCc3ccc(C(=O)O)cc3)cc2)c1)C1CCN(C(=O)CCC(=O)O)C1` (stereo not given), the IC50 [1] was 2580 nM.
Molecule `CCN([C@H]1CC[C@H](C(=O)O)CC1)S(=O)(=O)c1cccc(C(=O)Nc2[nH]c3ccccc3c2C(=O)Nc2ccc(CCCc3ccc(C(=O)O)cc3)cc2)c1` has an IC50 [1] of 257 nM.
In the case of `CCN(CC)c1ccc(NC(=O)c2cccc(CSCCOCCOCCOCCOCCOCCOCCOCCOCCC(=O)O)c2)c(-c2cc(C(=O)NCc3cccc(C(F)(F)F)c3)ccn2)c1`, the IC50 [3] is reported as 1000 nM.
Molecule `CCC(CC)N(CCN(C)C(=O)CCC(=O)O)Cc1cccc(C(=O)Nc2[nH]c3ccccc3c2C(=O)Nc2ccc(CCCc3ccc(C(=O)O)cc3)cc2)c1` has an AUC(0-t) [4] of 1090 ng·h/mL, a solubility at 24 h [5] of 103 µg/mL (≈ 133 µM) and an IC50 [6] of 28 nM. The solubility at 24 h [7] was 264 µg/mL (≈ 341 µM), the Cmax [8] was 568 ng/mL and the AUC(0-t) [9] was 834 ng·h/mL. For the same molecule, the Ct [10] was 39 µg/mL, the dose excreted at 24 h [11] was 68.1% and the bioavailability [12] was 13.1%. It also gave an IC50 [1] of 71 nM.
Molecule `CCC(CC)N(CCN(C)C(=O)NCC(=O)O)Cc1cccc(C(=O)Nc2[nH]c3ccccc3c2C(=O)Nc2ccc(CCCc3ccc(C(=O)O)cc3)cc2)c1` has an IC50 [1] of 369 nM.
In the case of `CCC(CC)N(CCN(C)C(=O)CNS(=O)(=O)c1c[nH]c(C(N)=O)c1)Cc1cccc(C(=O)Nc2[nH]c3ccccc3c2C(=O)Nc2ccc(CCCc3ccc(C(=O)O)cc3)cc2)c1`, the IC50 [1] is reported as 401 nM.
Molecule `CC(C)N(CCN(C)C(=O)CCC(=O)O)Cc1cccc(C(=O)Nc2[nH]c3ccccc3c2C(=O)Nc2ccc(CCCc3ccc(C(=O)O)cc3)cc2)c1` has an IC50 [1] of 356 nM.
Work on `CCC(CC)N(CCN(C)S(=O)(=O)NC(=O)OCC(=O)O)Cc1cccc(C(=O)Nc2[nH]c3ccccc3c2C(=O)Nc2ccc(CCCc3ccc(C(=O)O)cc3)cc2)c1` yielded an IC50 [1] of 267 nM.
Molecule `CCC(CC)N(CCN(C)C(=O)CN1C(=O)NC2NC(=O)NC21)Cc1cccc(C(=O)Nc2[nH]c3ccccc3c2C(=O)Nc2ccc(CCCc3ccc(C(=O)O)cc3)cc2)c1` (stereo not given) has an IC50 [1] of 401 nM.
With `CCC(CC)N(CCN(C)C(=O)CCC(=O)NCCOCCOCCOCCO)Cc1cccc(C(=O)Nc2[nH]c3ccccc3c2C(=O)Nc2ccc(CCCc3ccc(C(=O)O)cc3)cc2)c1` the AUC(0-t) [4] was 15.4 ng·h/mL, the AUC(0-t) [13] was 170 ng·h/mL and the solubility at 24 h [5] was > 482 µg/mL. The IC50 [6] was 98 nM, the solubility at 24 h [7] was > 479 µg/mL and the inhibition (Rattus norvegicus) was “Active”. The Cmax [8] was 15.5 ng/mL, the Ct [10] was 34 µg/mL and the dose excreted at 24 h [11] was 58.8%. For the same molecule, the bioavailability [12] was 1.1% and the IC50 [1] was 166 nM.
Molecule `CCC(CC)N(CCN(C)C(=O)CCC(=O)NCCOCCOCCOCCC(=O)O)Cc1cccc(C(=O)Nc2[nH]c3ccccc3c2C(=O)Nc2ccc(CCCc3ccc(C(=O)O)cc3)cc2)c1` has an IC50 [1] of 535 nM.
For `CCC(CC)N(CCN(C)C(=O)CCC(=O)O)Cc1cccc(C(=O)Nc2[nH]c3ccccc3c2C(=O)Nc2ccc(Cc3ccc(C(=O)O)cc3)cc2)c1`, the IC50 [1] was 448 nM.
With `CN(C(=O)CCC(=O)O)C1CCN(Cc2cccc(C(=O)Nc3[nH]c4ccccc4c3C(=O)Nc3ccc(CCCc4ccc(C(=O)O)cc4)cc3)c2)C1` (stereo not given) the IC50 [1] was 1020 nM.
